Experiments:
[1] = tested on: rats subjected to an anterior MI; conditions: intravenous ribose for 14 days previous to the inducement of MI; cited from earlier work
healthy dog hearts = conditions: administration immediately at reperfusion and continuing for at least four days; cited from earlier work
[2] = tested on: patients undergoing OPCABG; assay: metabolically directed protocol: oral D-ribose prior to and following OPCABG; assay type: in vivo, human
Excerpt: (§1) Following the initial study described in Example 2, 366 consecutive patients, 41-88 years of age, undergoing OPCABG were enrolled. Of these, 89 had recent MIs and seven presented with MIs within one to seven days. Prospectively collected data included comorbidities, hemodynamics and outcomes. All patients were managed with a protocol emphasizing normoglycemia, normothermia and reduced inflammation. Group 1 (n=308) received multiple oral doses (5 gram/dose) of D-ribose prior to and following surgery. […] Otherwise, both groups had similar preoperative characteristics including ejection fraction (EJ) and Society for Thoracic Surgery (STS) Risk Indices with nonsignificant trends in the increased comorbidities in Group 1.

[3] = tested on: myocardial dysfunction resulting from globally induced ischemia during cardiac surgical procedures; assay type: in vivo, human
Procedure: B. A preconditioning study was performed in human patients scheduled for surgery.
Inclusion criteria were: • Males or females aged 18 or older • Patients with documented coronary artery disease undergoing CABG with an ejection fraction (EF) of 35% based on echocardiography, radionuclide imaging or cardiac catheterization done within eight weeks of surgery. (If more than one method was used to evaluate EF during this period, the mean values of the various methods were 35%). • Patients undergoing single or double valve replacement with documented coronary artery disease also undergoing CABG; or patients undergoing single or double valve replacement without CABG • Serum creatinine of <2.35 mg/dl • For females of childbearing potential, a negative pregnancy test. • Signed consent forms.
The test article, placebo or ribose, was dispensed according to computer-generated randomization schedule either for patients undergoing CABG only or for patients undergoing heart valve surgery +/−CABG. All patients received a high dose narcotic anaesthesia technique consisting of either fentanyl (50-100 μg/kg) or sufentanil (10-20 μg/kg) and midazolam. No restriction was placed on the type of anaesthetic agents administered. The anaesthesiologists and surgeons responsible for the care of the patents made the clinical decision to use inotropic support, intra-aortic balloon pump support or post bypass circulatory support based on their knowledge of patients requirements and accepted medical practice and without regard to test article status. The test article infusion was started intravenously at the time of aortic cross clamping and continued until the pulmonary artery catheters introducer was removed or for five days (120) hours whichever occurred first. The surgeons responsible for the clinical care of the patients removed the pulmonary artery catheter cordis without regard to test article stats.
Hemodynamic measurements consisting of heart rate, blood pressure, pulmonary artery pressures, pulmonary capillary wedge pressure (PCWP), central venous pressure (CVP) and thermodilution cardiac index (CI) were obtained at the following time intervals: immediately prior to induction of anaesthesia, post induction of anaesthesia prior to sternotomy, post sternotomy prior to initiation of cardiopulmonary bypass, upon successful termination of cardiopulmonary bypass prior to sternal closure and prior to reversal of heparinization with protamine, post closure of the sternum, upon arrival in the intensive care unit and at one or two hour intervals until the pulmonary artery a catheter was removed.
Transesophageal echocardiography data (H.P. Sonos OR, 5.0 MHz, Andover, Mass.) was collected at the following time intervals: post induction of anaesthesia prior to sternotomy, and immediately post closure of the sternum. Transthoracic echocardiography (H.P. Sonos 1500. 2.5 MHz, Andover, Mass.) measurements were made on day three and day seven of the study period. For both the transesophageal and transthoracic echocardiograms, the following long axis and short axis mid-papillary area changes were measured in triplicate by acoustic quantification techniques: end diastolic area (EDA), end systolic area (ESA), fractional area change (FAC), +dA/dt and −dA/dt. All area change data were also analyzed by manual off line analysis. EF was also determined off line using a long axis view, In addition, regional wall motion was quantified as the following: normal=1, hypokinetic=2, akinetic=3 and dyskinetic=4. The wall motion index score (WMIS) and percentage normal myocardium were calculated by reading a maximum of sixteen segments. Echocardiography data for evaluating wall motion and area change was analyzed only if greater than 75% of the endocardial border could be visualized through a complete cardiac cycle. Off line analysis was performed on an Image View echocardiography workstation (Nova Microsonics, Allendale, N.J.). […]

[4] = tested on: acute, first response MI patients; assay: first response acute MI patients given D-ribose (subset of Group 1); assay type: in vivo, human; conditions: seven first response MI patients
Excerpt: as §1
A. While these studies are promising, neither replicates the clinical situation of a patient presenting at first response with an acute myocardial infarction, where time is of the essence. In most cases, MI is a spontaneous event, but an MI can be induced during a procedure such as angiogram, angioplasty or dobutamine echocardiography. Such a patient is generally in the process of compromising cardiac function.
It should also be mentioned that these seven patients are included in Group 1 of Table I. With preloading with D-ribose, they were able to maintain and slightly increase their CI in comparison to the total group.

[5] = Group 1, oral D-ribose, p<0.001 versus Group 2

For `O=C[C@H](O)[C@H](O)[C@H](O)CO` [D-ribose], the “parameters of heart function (LV diastolic diameter, LV systolic diameter, ejection fraction, shortening fraction)” value [1] is given as “Significant improvement”, the ATP recovery (healthy dog hearts) is given as “enhanced ATP recovery” and the postoperative death ([2]; Group 1) is given as “one”. The “time in intensive care” value ([2]; Group 1 (n=308), multiple oral doses 5 gram/dose prior to and following surgery, trend not significant) was 72 h, the “requirement for IABP” value ([2]; Group 1 (n=308), oral D-ribose, trend not significant) was 12% and the “increase in CI after surgery” value [2, 5] was 0.8. The “patients demonstrating an increase in CI after OPCABG” value [2, 5] was 86%, the “Postop CI” value ([2]; Group 1, postoperative cardiac index) was 3.0 ± 0.7 and the “Preop CI” value ([2]; Group 1, preoperative cardiac index) was 2.3 ± 0.5. The “Change (Preop CI to Postop CI)” value ([2]; Group 1 of Table I) was “+0.07”, the “patients who developed hypoglycemia (fingerstick glucose <70 mg/dl)” value ([3]; both, human, in vivo) was 28% and the lowest glucose level ([3]; human, in vivo) was 31 mg/dL. The “mean glucose level in those patients developing hypoglycemia” value ([3]; human, in vivo) was 58 mg/dL, the “neurological or other clinical symptoms associated with hypoglycemia” value ([3]; human, in vivo) was “None” and the “subjects in whom study drug infusion was stopped because of hypoglycemia” value ([3]; human, in vivo) was “two”. For the same compound, the “mean Day 7 EF” value ([3]; ribose treated patients, Day 7, echocardiography, IV infusion 100 mg/kg/hr) was 41%, the “mean baseline EF” value ([3]; ribose treated patients, baseline, echocardiography, IV infusion 100 mg/kg/hr) was 44% and the “Change (Preop CI to Postop CI)” value [4] was “+0.41”. For the same compound, the “Postop CI” value [4] was 2.60 ± 0.4 and the “Preop CI” value [4] was 2.19 ± 0.7.

— patent publication US20170326165A1, “USE OF RIBOSE IN FIRST RESPONSE TO ACUTE MYOCARDIAL INFARCTION” (BIOENERGY, INC., priority 2008, published 2017)
